Tested on: K14 mouse model of type 2 Gaucher disease
Experiment: K14 mouse model of type 2 Gaucher disease
Format: in vivo
Text: As noted above, Gaucher Disease results from a deficiency of the lysosomal enzyme glucocerebrosidase (GC). In the most common phenotype of Gaucher disease (type 1), pathology is limited to the reticuloendothelial and skeletal systems and there are no neuropathic symptoms. See Barranger, Glucosylceramide lipidosis: Gaucher disease. In: Scriver C R B A, Sly W S, Valle D, editor. The Metabolic Basis of Inherited Disease. New York: McGraw-Hill. pp. 3635-3668 (2001). In neuropathic Gaucher disease (nGD), subdivided into type 2 and type 3 Gaucher disease, the deficiency of glucocerebrosidase (GC) causes glucosylceramide (GluCer; GL-1) and glucosylsphingosine (GluSph) to accumulate in the brain, leading to neurologic impairment. Type 2 Gaucher disease is characterized by early onset, rapid progression, extensive pathology in the viscera and central nervous system, and death usually by 2 years of age. Type 3 Gaucher disease, also known as subacute nGD, is an intermediate phenotype with varying age of onset and different degrees of severity and rates of progression. Goker-Alpan et al., The Journal of Pediatrics 143: 273-276 (2003). A recent development has produced the K14 lnl/lnl mouse model of type 2 Gaucher disease (hereinafter, the “K14 mouse”); this mouse model closely recapitulates the human disease showing ataxia, seizures, spasticity and a reduced median lifespan of only 14 days. Enquist et al., PNAS 104: 17483-17488 (2007).
As in patients with nGD, several mouse models of the disease have increased levels of GluCer and GluSph in the brain due to the deficiency in GC activity. Liu et al., PNAS 95: 2503-2508 (1998) and Nilsson, J. Neurochem 39: 709-718 (1982). The “K14” mice display a neuropathic phenotype that shares many pathologic features with type 2 Gaucher disease, such as neurodegeneration, astrogliosis, microglial proliferation, and increased levels of GluCer and GluSph in specific brain regions. Enquist et al. (2007).
Clinical management of patients affected by nGD poses a challenge for treating physicians both because of the severity of type 2 disease and the inability of the current therapies to cross the blood brain barrier (BBB). Current treatment of non-nGD relies on the intravenous delivery of recombinant human glucocerebrosidase (Imiglucerase; Cerezyme™) to replace the missing enzyme or the administration of glucosylceramide synthase inhibitors to attenuate substrate (GL-1) production. […] Current small molecule glucosylceramide synthase inhibitors in the clinic are not likely to address the neuropathic phenotypes of nGD.

For CC(C)(NC(=O)OC1CN2CCC1CC2)c1cccc(-c2ccc(F)cc2)c1 (stereo not shown) [Gz161, Quinuclidin-3-yl (2-(4′-fluoro-[1,1′-biphenyl]-3-yl)propan-2-yl)carbamate], the brain neuropathology was “reduced”, the lifespan was “extended” and the “brain GluCer” value (brain) was “reduce”. For the same molecule, the “brain GluSph” value (brain) was “reduce”.

Source: US9518049B2, “Salt forms of (S)-quinuclidin-3-yl (2-(2-(4-fluorophenyl)thiazol-4-yl)propan-2-yl)carbamate” (Genzyme Corporation, priority 2013, dated 2016)
